Assay results reported in US11040043B2, “Transdermal pharmaceutical compositions comprising active agents” (priority 2009, dated 2021).
Where two headings read alike, the source gives them in different places. Values belong to the compound of their own block, whether it stands above or below them.

Tests used:
clinical = experiment: clinical; set-up: species or system human; conditions: in vivo
Description: A multiple-dose, open-label, dose-escalation study was designed in which 12 healthy male subjects were scheduled to receive 1 of 2 treatments once daily for 3 days with an 11-day washout period between doses.
The objective of this Phase 1 study was to assess the safety and pharmacokinetic (PK) profile of multiple dose administration of 0.25 g and 1.00 g of a 0.07% transdermal estradiol gel in healthy male volunteers. The transdermal gel used had the following formulation: […]
Twelve (12) healthy subjects were enrolled and participated in two open-label treatment periods. Subjects who successfully completed the screening process checked into the research center on Day 1, approximately 1 to 2 hours prior to the first blood draw of each treatment period. For Treatment Period A, 0.25 g of the 0.07% gel was to be administered once daily for three days. During Treatment Period B, 1.0 g of the 0.07% gel was to be administered once daily for three days. Dosing days were to be separated by a washout period of at least 11 days.
Diagnosis and Main Criteria for Inclusion: Healthy adult male volunteers, 18-45 years of age, with body mass index (BMI) between 18 and 30 kg/m2, inclusive, and minimum weight of 50 kg (110 pounds).

[1] = Solubility of ethyl oleate as a function of ethanol concentration; type: physicochemical; conditions: for Amount of Ethyl Oleate solubilised in g/100 g: room temperature, 0.24% estradiol, 5% propylene glycol, 2% oleic acid, Qsf water
Description: In particular, it appears that the more ester is present in the composition, the better the storage depot effect is. […] An upper limit is imposed, however, by the solubility of the fatty acid ester in the composition.

AUC0-24 (clinical; male, human): 0.7522 ng·h/mL
AUC0-120 (clinical; male, human): 2.933 ng·h/mL
AUC24-48 (clinical; male, human): 0.661 ng·h/mL
AUC48-72 (clinical; male, human): 0.6581 ng·h/mL
AUC(0-t) (clinical; male, human): 4.436 ng·h/mL
Cmax-overall (clinical; male, human): 0.0646 ng/mL
increase in overall systemic exposure based on AUC0-120 (clinical; male, human): 1.26 fold
increase in peak systemic exposure based on Cmax0-120 (clinical; male, human): 1.95 fold
increase of estradiol concentrations above baseline (clinical; male, human): 2- to 3 fold
ratio (0.25 g: 1.00 g) for estradiol AUC0-120 (clinical; male, human): 80.01%
ratio (0.25 g: 1.00 g) for estradiol Cmax0-120 (clinical; male, human): 47.89%
Tmax (clinical; male, human, 0.25 g of 0.07% estradiol gel (Example 10) once daily for 3 days, healthy males, Mean, N 12, read-out: Tmax-overall): 54.8 h
Tmax (clinical; male, human, 0.25 g, first dosing interval, read-out: Estradiol Tmax after administration of the gel): ~13 h
Tmax (clinical; male, human, 0.25 g, third dosing interval, read-out: Estradiol Tmax after administration of the gel): ~3 h
Tmax (clinical; male, human, 1.00 g of 0.07% estradiol gel (Example 10) once daily for 3 days, healthy males, Mean, n 11, read-out: Tmax-overall): 29.8 h
AUC(0-t) (clinical; male, human, AUC0-24 (hr * pg/mL)): 0.477 ng·h/mL
AUC(0-t) (clinical; male, human, AUC0-120 (hr * pg/mL)): 2.33 ng·h/mL
AUC(0-t) (clinical; male, human, AUC0-t (hr * pg/mL)): 3.78 ng·h/mL
AUC (clinical; male, human, AUC24-48 (hr * pg/mL)): 0.503 ng·h/mL
AUC (clinical; male, human, AUC48-72 (hr * pg/mL)): 0.477 ng·h/mL
Cmax (clinical; male, human, Cmax-overall (pg/mL)): 0.0331 ng/mL
Structure (SMILES): C[C@]12CC[C@@H]3c4ccc(O)cc4CC[C@H]3[C@@H]1CC[C@@H]2O [Estradiol, estradiol]
dose proportionality of exposure (clinical): less than proportional increase in exposure

Amount of Ethyl Oleate solubilised in g/100 g ([1]; EtOH (96% v/v) 64%): 0.65 g/100 g
Amount of Ethyl Oleate solubilised in g/100 g ([1]; EtOH (96% v/v) 66%): 0.91 g/100 g
Amount of Ethyl Oleate solubilised in g/100 g ([1]; EtOH (96% v/v) 68%): 1.28 g/100 g
Amount of Ethyl Oleate solubilised in g/100 g ([1]; EtOH (96% v/v) 70%): 1.60 g/100 g
Amount of Ethyl Oleate solubilised in g/100 g ([1]; EtOH (96% v/v) 72%): 2.19 g/100 g
Amount of Ethyl Oleate solubilised in g/100 g ([1]; EtOH (96% v/v) 73%): 2.40 g/100 g
maximum ethyl oleate that can be dissolved ([1]; formulation comprising 72% ethanol): ≤ 2.2%
Structure (SMILES): CCCCCCCC/C=C\CCCCCCCC(=O)OCC [Ethyl Oleate, ethyl oleate]
